For orientation: pEC50 means the EC50 on a negative log10 scale, so that one unit is a factor of ten. A higher pEC50 goes with a small EC50.

pEC50: −log10 of the molar value.

Sequence of human GPBAR1 receptor (Q8TDU6 whole entry): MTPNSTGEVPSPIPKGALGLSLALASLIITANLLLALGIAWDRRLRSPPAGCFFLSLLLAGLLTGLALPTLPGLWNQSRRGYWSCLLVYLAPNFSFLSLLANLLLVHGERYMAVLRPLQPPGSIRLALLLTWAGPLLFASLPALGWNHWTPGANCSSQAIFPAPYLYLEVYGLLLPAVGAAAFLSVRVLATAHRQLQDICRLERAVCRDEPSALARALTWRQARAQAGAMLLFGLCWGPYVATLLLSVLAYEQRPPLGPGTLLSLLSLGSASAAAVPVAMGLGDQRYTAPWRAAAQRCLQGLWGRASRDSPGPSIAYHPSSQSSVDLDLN

For this test, the target named is human GPBAR1 receptor (Homo sapiens (Human), UniProt Q8TDU6). As to the kind of experiment: functional cAMP assay in CHO-dhfr(minus) cells expressing human GPBAR1 receptors. Conditions: CHO-dhfr(minus) cells expressing human GPBAR1, 30 min at 30° C. The format is cell-based. A digest of the protocol:
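CHO-dhfr- cells were transfected with human GPBAR1, and a clone was chosen by cAMP response to lithocholic acid. EC50 values come from the cAMP read-out; specificity was checked in non-transfected CHO cells.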
Background: Cyclic AMP is a second messenger, typically raised through Gs and lowered through Gi signalling.
With `COc1cc(F)ccc1-c1ccncc1N(C)C(=O)c1cc(Cl)cc(OC(F)(F)F)c1` [Example 227, 3-Chloro-N-[4-(4-fluoro-2-methoxy-phenyl)-pyridin-3-yl]-N-methyl-5-trifluoromethoxy-benzamide], the pEC50 is 7.03.

Compound `COc1cc(F)ccc1-c1ccncc1N(CC(F)(F)F)C(=O)c1cc(C(F)(F)F)cc(S(C)(=O)=O)c1` [Example 136, N-[4-(4-Fluoro-2-methoxy-phenyl)-pyridin-3-yl]-3-methanesulfonyl-N-(2,2,2-trifluoro-ethyl)-5-trifluoromethyl-benzamide] showed a negative logarithm of the EC50 (pEC50) of 6.61.

As to `COCCOc1cc(C(=O)N(C)c2cnccc2-c2ccc(F)cc2OC)cc(C(F)(F)F)c1` [Example 236, N-[4-(4-Fluoro-2-methoxy-phenyl)-pyridin-3-yl]-3-(2-methoxy-ethoxy)-N-methyl-5-trifluoromethyl-benzamide], the pEC50 is 6.05.

`COc1cccc(F)c1-c1ccncc1N(C)C(=O)c1cc(C(F)(F)F)cc(S(C)(=O)=O)c1` [Example 205, N-[4-(2-Fluoro-6-methoxy-phenyl)-pyridin-3-yl]-3-methanesulfonyl-N-methyl-5-trifluoromethyl-benzamide] had a pEC50 of 7.77.

In turn, `COC(=O)c1ccc(C)c(-c2ccncc2N(C)C(=O)c2cc(C(F)(F)F)cc(C(F)(F)F)c2)c1` [Example 83, 3-{3-[(3,5-Bis-trifluoromethyl-benzoyl)-methyl-amino]-pyridin-4-yl}-4-methyl-benzoic acid methyl ester] showed a negative logarithm of the EC50 (pEC50) of 6.42.

The compound `CN(C(=O)c1ccc(Br)c(C(F)(F)F)c1)c1cnccc1-c1ccccc1Cl` [Example 80, 4-Bromo-N-[4-(2-chloro-phenyl)-pyridin-3-yl]-N-methyl-3-trifluoromethyl-benzamide] showed a pEC50 of 6.52.

On to `CS(=O)(=O)CCN(C(=O)c1cc(C(F)(F)F)cc(C(F)(F)F)c1)c1cnccc1-c1ccccc1F` [Example 191, N-[4-(2-Fluoro-phenyl)-pyridin-3-yl]-N-(2-methanesulfonyl-ethyl)-3,5-bis-trifluoromethyl-benzamide], for which the pEC50 was 6.95.

`COc1cc(F)ccc1-c1ccncc1N(C)C(=O)c1cc(C(F)(F)F)cc(S(=O)(=O)CCO)c1` [Example 218, N-[4-(4-Fluoro-2-methoxy-phenyl)-pyridin-3-yl]-3-(2-hydroxy-ethanesulfonyl)-N-methyl-5-trifluoromethyl-benzamide] gave a pEC50 of 7.14.

`CN(C)C(=O)CN(C(=O)c1cc(C(F)(F)F)cc(C(F)(F)F)c1)c1cnccc1-c1ccccc1Cl` [Example 118, N-[4-(2-Chloro-phenyl)-pyridin-3-yl]-N-dimethylcarbamoylmethyl-3,5-bis-trifluoromethyl-benzamide] showed a pEC50 of 5.61.

Compound `Cc1ccccc1-c1ccncc1N(C)C(=O)c1ccc(C(F)(F)F)c(F)c1` [Example 94, 3-Fluoro-N-methyl-N-(4-o-tolyl-pyridin-3-yl)-4-trifluoromethyl-benzamide] gave a pEC50 of 5.67.

Compound `COC(=O)COc1cc(F)ccc1-c1ccncc1N(C)C(=O)c1cc(C(F)(F)F)cc(C(F)(F)F)c1` [Example 49, (2-{3-[(3,5-Bis-trifluoromethyl-benzoyl)-methyl-amino]-pyridin-4-yl}-5-fluoro-phenoxy)-acetic acid methyl ester] had a pEC50 of 6.20.

As for `O=C(c1cc(C(F)(F)F)cc(C(F)(F)F)c1)N(CCF)c1cnccc1-c1ccccc1Cl` [Example 110, N-[4-(2-Chloro-phenyl)-pyridin-3-yl]-N-(2-fluoro-ethyl)-3,5-bis-trifluoromethyl-benzamide], the pEC50 was 6.82.

Consider `Cc1ccccc1-c1ccncc1N(C)C(=O)c1cc(Cl)cc(Cl)n1` [Example 123, 4,6-Dichloro-pyridine-2-carboxylic acid methyl-(4-o-tolyl-pyridin-3-yl)-amide], for which the pEC50 is 6.33.

Turning to `COc1c(F)cc(F)cc1-c1ccncc1N(C)C(=O)c1cc(C(F)(F)F)cc(C(F)(F)F)c1` [Example 59, N-[4-(3,5-Difluoro-2-methoxy-phenyl)-pyridin-3-yl]-N-methyl-3,5-bis-trifluoromethyl-benzamide], the pEC50 was 6.72.

In turn, `O=C(c1cc(C(F)(F)F)nc(C(F)(F)F)c1)N(CC(F)F)c1cnccc1-c1ccccc1F` [Example 155, N-(2,2-Difluoro-ethyl)-N-[4-(2-fluoro-phenyl)-pyridin-3-yl]-2,6-bis-trifluoromethyl-isonicotinamide] showed a pEC50 of 7.42.

`COc1nc(C)ccc1-c1ccncc1N(C)C(=O)c1cc(C(F)(F)F)cc(C(F)(F)F)c1` [Example 47, N-(2-Methoxy-6-methyl-[3,4′]bipyridinyl-3′-yl)-N-methyl-3,5-bis-trifluoromethyl-benzamide] showed a negative logarithm of the EC50 (pEC50) of 7.17.

On to `COc1cccc(F)c1-c1ccncc1N(C)C(=O)c1cc(C(F)(F)F)cc(C(F)(F)F)c1` [Example 66, N-[4-(2-Fluoro-6-methoxy-phenyl)-pyridin-3-yl]-N-methyl-3,5-bis-trifluoromethyl-benzamide], for which the pEC50 was 8.10.

In the case of `Cc1nn(C)c(C)c1-c1ccncc1N(C)C(=O)c1cc(C(F)(F)F)cc(C(F)(F)F)c1` [Example 208, N-Methyl-3,5-bis-trifluoromethyl-N-[4-(1,3,5-trimethyl-1H-pyrazol-4-yl)-pyridin-3-yl]-benzamide], the pEC50 was 5.53.

For the compound `Cc1ccccc1-c1ccncc1N(CC(F)(F)F)C(=O)c1cc(C(F)(F)F)nc(C(F)(F)F)c1` [Example 150, N-(4-o-Tolyl-pyridin-3-yl)-N-(2,2,2-trifluoro-ethyl)-2,6-bis-trifluoromethyl-isonicotinamide], the pEC50 was 7.05.

`Cc1ccc(F)c(-c2ccncc2N(C)C(=O)c2cc(C(F)(F)F)cc(C(F)(F)F)c2)c1` [Example 42, N-[4-(2-Fluoro-5-methyl-phenyl)-pyridin-3-yl]-N-methyl-3,5-bis-trifluoromethyl-benzamide]: the pEC50 was 6.92.

For the compound `COCCN(C(=O)c1cc(C(F)(F)F)cc(C(F)(F)F)c1)c1cnccc1-c1ccccc1Cl` [Example 89, N-[4-(2-Chloro-phenyl)-pyridin-3-yl]-N-(2-methoxy-ethyl)-3,5-bis-trifluoromethyl-benzamide], the pEC50 is 8.10.

In the case of `Cc1ccccc1-c1ccncc1N(C)C(=O)c1cccc(Cl)c1` [Example 3, N-Methyl-N-(4-o-tolyl-pyridin-3-yl)-3-chloro-benzamide], the pEC50 was 6.04.

Regarding `CN(C(=O)c1cc(Br)cc(C(F)(F)F)c1)c1cnccc1-c1ccccc1Cl` [Example 74, 3-Bromo-N-[4-(2-chloro-phenyl)-pyridin-3-yl]-N-methyl-5-trifluoromethyl-benzamide], the pEC50 is 7.47.

Regarding `COc1ncccc1-c1ccncc1N(CC(F)(F)F)C(=O)c1cc(F)cc(C(F)(F)F)c1` [Example 141, 3-Fluoro-N-(2-methoxy-[3,4′]bipyridinyl-3′-yl)-N-(2,2,2-trifluoro-ethyl)-5-trifluoromethyl-benzamide], the pEC50 was 5.78.

Compound `COc1cc(F)ccc1-c1ccncc1N(C)C(=O)c1cc(Br)cc(OC(F)(F)F)c1` [Example 246, 3-Bromo-N-[4-(4-fluoro-2-methoxy-phenyl)-pyridin-3-yl]-N-methyl-5-trifluoromethoxy-benzamide] showed a pEC50 of 6.77.

Take `CN(C(=O)c1cc(C(F)(F)F)cc(S(C)(=O)=O)c1)c1cnccc1-c1ccccc1OC1CC1` [Example 242, N-[4-(2-Cyclopropoxy-phenyl)-pyridin-3-yl]-3-methanesulfonyl-N-methyl-5-trifluoromethyl-benzamide]: the negative logarithm of the EC50 (pEC50) was 7.96.

Regarding `COc1cc(F)c(F)cc1-c1ccncc1N(CC(N)=O)C(=O)c1cc(C(F)(F)F)cc(S(C)(=O)=O)c1` [Example 193, N-(2-Amino-2-oxoethyl)-N-(4-(4,5-difluoro-2-methoxyphenyl)pyridin-3-yl)-3-(methylsulfonyl)-5-(trifluoromethyl)benzamide], the pEC50 was 6.34.

The compound `COc1cc(F)c(F)cc1-c1ccncc1N(C)C(=O)c1cc(C(F)(F)F)cc(S(C)(=O)=O)c1` [Example 137, N-[4-(4,5-Difluoro-2-methoxy-phenyl)-pyridin-3-yl]-3-methanesulfonyl-N-methyl-5-trifluoromethyl-benzamide] showed a pEC50 of 6.78.

In the case of `CN(C(=O)c1cc(C(F)(F)F)cc(S(C)(=O)=O)c1)c1cnccc1-c1ccccc1` [Example 323, 3-Methanesulfonyl-N-methyl-N-(4-phenyl-pyridin-3-yl)-5-trifluoromethyl-benzamide], the pEC50 was 6.98.

`COc1cc(F)ccc1-c1ccncc1N(C)C(=O)c1cc(SCCO)cc(C(F)(F)F)c1` [Example 216, N-[4-(4-Fluoro-2-methoxy-phenyl)-pyridin-3-yl]-3-(2-hydroxy-ethylsulfanyl)-N-methyl-5-trifluoromethyl-benzamide]: the pEC50 is 7.42.

For `COc1cc(F)ccc1-c1cc(C)ncc1N(C)C(=O)c1cc(SCCCCC(=O)O)cc(C(F)(F)F)c1` [Example 312, 5-(3-{[4-(4-Fluoro-2-methoxy-phenyl)-6-methyl-pyridin-3-yl]-methyl-carbamoyl}-5-trifluoromethyl-phenylsulfanyl)-pentanoic acid], the pEC50 was 5.62.

Take `COC(=O)CN(C(=O)c1cc(C(F)(F)F)cc(S(C)(=O)=O)c1)c1cnccc1-c1ccccc1Cl` [Example 289, [[4-(2-Chloro-phenyl)-pyridin-3-yl]-(3-methanesulfonyl-5-trifluoromethyl-benzoyl)-amino]-acetic acid methyl ester]: the pEC50 was 6.56.

Take `CN(C(=O)c1cc(C(F)(F)F)cc(S(C)(=O)=O)c1)c1cnccc1-c1ccccc1OCc1ccccc1` [Example 258, N-[4-(2-Benzyloxy-phenyl)-pyridin-3-yl]-3-methanesulfonyl-N-methyl-5-trifluoromethyl-benzamide]: the pEC50 is 5.73.

Take `CN(C(=O)c1cc(C(F)(F)F)cc(C(F)(F)F)c1)c1cnccc1-c1ccccc1CCO` [Example 93, N-{4-[2-(2-Hydroxy-ethyl)-phenyl]-pyridin-3-yl}-N-methyl-3,5-bis-trifluoromethyl-benzamide]: the pEC50 was 5.65.

Source of the values: patent publication US10385022B2, “3-amino-pyridines as GPBAR1 agonists” (HOFFMANN-LA ROCHE INC., priority 2011, dated 2019).
